Counter-ions that a name gives are not always drawn.
Key:
5HT2A(rat) [1] = molecular target: T1, 5HT2A(rat) (Rattus norvegicus, UniProt P14842); assay: 5HT2 Functional Assay: [Ca2+]i Mobilization (FLIPR, A7r5 cells); assay type: cell-based; set-up: endogenous in cells; host or cells: A7r5 rat vascular smooth muscle cells; settings: for EC50: [Ca2+]i mobilization, rat vascular smooth muscle cells A7r5; for Emax: percentage of maximum 5-HT-induced response, A7r5 cells
Method: The receptor-mediated mobilization on intracellular calcium ([Ca^2+]i) was studied using the Fluorescence Imaging Plate Reader (FLIPR) instrument. Rat vascular smooth muscle cells, A7r5, were grown in a normal media of DMEM/10% FBS and 10 μg/mL gentamycin. Confluent cell monolayers were trypsinized, pelleted, and re-suspended in normal media. Cells were seeded in a 50 μL volume at a density of 20,000 cells/well in a black wall, 96-well tissue culture plate and grown for 2 days.
On the day of the experiment, one vial of FLIPR Calcium Assay Kit dye was re-suspended in 50 mL of a FLIPR buffer consisting of Hank's Balanced Salt Solution (HBSS), 20 mM HEPES, and 2.5 mM probenecid, pH 7.4. Cells were loaded with the calcium-sensitive dye by addition of an equal volume (50 μL) to each well of the 96-well plate and incubated with dye for 1 h at 23° C.
Compounds were diluted 1:50 in 20% DMSO/20% Ethanol. For “hit” screening, compounds were further diluted 1:10 in FLIPR buffer and tested at a final concentration of 10 μM.
The compound plate and cell plate were placed in the FLIPR instrument. At the beginning of an experimental run, a signal test was performed to check the basal fluorescence signal from the dye-loaded cells and the uniformity of the signal across the plate. The basal fluorescence was adjusted between 8000-12000 counts by modifying the exposure time, the camera F-stop, or the laser power. Instrument settings for a typical assay were the following: laser power 0.3-0.6 W, camera F-stop F/2, and exposure time 0.4 sec. An aliquot (25 μL) of the test compound was added to the existing 100 μL dye-loaded cells at a dispensing speed of 50 μL/sec. Fluorescence data were collected in real-time at 1.0 sec intervals for the first 60 secs and at 6.0 sec intervals for an additional 120 secs.

5HT2A(rat) [2] = molecular target: T1, 5HT2A(rat); assay: 5-HT2 Receptor Binding Assay ([125I]DOI competition, cerebral cortex homogenates); set-up: Aliquots of post mortem rat or human cerebral cortex homogenates (400 μL) dispersed in 50 mM TrisHCl buffer; from tissue; host or cells: post mortem rat cerebral cortex homogenate; settings: inhibition of [125I]DOI binding
Method: 5-HT2 Receptor Binding Assay
Aliquots of post mortem rat or human cerebral cortex homogenates (400 μL) dispersed in 50 mM TrisHCl buffer (pH 7.4) are incubated with [^125I]DOI (80 pM final) in the absence or presence of methiothepin (10 μM final) to define total and non-specific binding, respectively, in a total volume of 0.5 mL. The assay mixture is incubated for 1 hour at 23° C. in polypropylene tubes and the assays terminated by rapid vacuum filtration over Whatman GF/B glass fiber filters previously soaked in 0.3% polyethyleneimine using ice-cold buffer. Test compounds (at different concentrations) are substituted for methiothepin. Filter-bound radioactivity is determined by scintillation spectrometry on a beta counter. The data are analyzed using a non-linear, iterative curve-fitting computer program [Trends Pharmacol. Sci., 16, 413 (1995)] to determine the compound affinity parameter. The concentration of the compound needed to inhibit the [^125I]DOI binding by 50% of the maximum is termed the IC50 or Ki value.

T1 sequence (P14842 whole entry): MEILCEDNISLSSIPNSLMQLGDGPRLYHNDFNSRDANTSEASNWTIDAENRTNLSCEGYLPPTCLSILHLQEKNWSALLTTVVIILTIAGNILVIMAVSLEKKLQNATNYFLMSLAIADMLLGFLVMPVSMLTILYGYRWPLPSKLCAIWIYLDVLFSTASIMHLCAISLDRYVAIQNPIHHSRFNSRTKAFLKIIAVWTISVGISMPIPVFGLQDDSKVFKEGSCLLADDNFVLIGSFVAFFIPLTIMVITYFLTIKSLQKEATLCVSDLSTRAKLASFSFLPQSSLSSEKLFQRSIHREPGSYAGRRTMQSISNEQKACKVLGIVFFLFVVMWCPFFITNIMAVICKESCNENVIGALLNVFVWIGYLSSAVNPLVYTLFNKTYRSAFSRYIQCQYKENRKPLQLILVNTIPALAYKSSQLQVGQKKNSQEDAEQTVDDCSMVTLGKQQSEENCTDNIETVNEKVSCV

| SMILES | melting point | EC50 (5HT2A(rat) [1]) | Emax (5HT2A(rat) [1]) | IC50 (5HT2A(rat) [2]) |
| --- | --- | --- | --- | --- |
| C[C@H](N)Cn1ncc2ccc3oc(C(N)=O)cc3c21 (as salt: fumarate) [Example 3, 1-((S)-2-Aminopropyl)-1H-furo[2,3-g]indazole-7-carboxylic acid amide] | 170 to 172 °C | – | – | – |
| COCCNC(=O)c1cc2c(ccc3cnn(C[C@H](C)N)c32)o1 (as salt: fumarate) [Example 8, 1-((S)-2-Aminopropyl)-1H-furo[2,3-g]indazole-7-carboxylic acid (2-methoxyethyl)-amide] | 75 to 76 °C | – | – | – |
| CC(O)CNC(=O)c1cc2c(ccc3cnn(C[C@H](C)N)c32)o1 (stereo partly drawn) (as salt: fumarate) [Example 9, 1-((S)-2-Aminopropyl)-1H-furo[2,3-g]indazole-7-carboxylic acid (2-hydroxypropyl)-amide] | 190 to 191 °C | – | – | – |
| C[C@H](N)Cn1ncc2ccc3oc(C(=O)NCC4(O)CC4)cc3c21 (as salt: fumarate) [Example 10, 1-((S)-2-Aminopropyl)-1H-furo[2,3-g]indazole-7-carboxylic acid (1-hydroxy-cyclopropylmethyl)-amide] | 77 to 79 °C | – | – | – |
| C[C@H](N)Cn1ncc2ccc3oc(C(=O)NCC(C)(C)CO)cc3c21 (as salt: fumarate) [Example 11, 1-((S)-2-Aminopropyl)-1H-furo[2,3-g]indazole-7-carboxylic acid (3-hydroxy-2,2-dimethyl-propyl)-amide] | 103 °C | – | – | – |
| CC(=O)NCCCNC(=O)c1cc2c(ccc3cnn(C[C@H](C)N)c32)o1 (as salt: fumarate) [Example 12, 1-((S)-2-Amino-propyl)-1H-furo[2,3-g]indazole-7-carboxylic acid (3-acetylaminopropyl)-amide] | 81 °C | – | – | – |
| C[C@H](N)Cn1ncc2ccc3oc(C(=O)NCCCN4CCCC4=O)cc3c21 (as salt: fumarate) [Example 13, 1-((S)-2-Aminopropyl)-1H-furo[2,3-g]indazole-7-carboxylic acid [3-(2-oxo-pyrrolidin-1-yl)-propyl]-amide] | 82 °C | – | – | – |
| Cc1ccc(CNC(=O)c2cc3c(ccc4cnn(C[C@H](C)N)c43)o2)o1 (as salt: fumarate) [Example 14, 1-((S)-2-Aminopropyl)-1H-furo[2,3-g]indazole-7-carboxylic acid (5-methyl-furan-2-ylmethyl)amide] | 118 to 120 °C | – | – | – |
| Cc1noc(-c2cc3c(ccc4cnn(C[C@H](C)N)c43)o2)n1 (as salt: fumarate) [Example 15, (S)-1-Methyl-2-[7-(3-methyl-1,2,4-oxadiazol-5-yl)-furo[2,3-g]indazol-1-yl]-ethylamine] | 187 to 189 °C | – | – | – |
| CCOC(=O)c1cc2c(ccc3cnn(C[C@H](C)N)c32)o1.O=C(O)/C=C/C(=O)O [Example 1, 1-((S)-2-Aminopropyl)-1H-furo[2,3-g]indazole-7-carboxylic acid ethyl ester fumarate] | 184 to 185 °C | 63 nM | 101% | 0.21 nM |
| C[C@H](N)Cn1ncc2ccc3oc(CO)cc3c21 [Example 2, [1-((S)-2-Aminopropyl)-1H-furo[2,3-g]indazol-7-yl]-methanol] | 110 to 112 °C | 18 nM | 86% | 0.53 nM |
| C[C@H](N)Cn1ncc2ccc3oc(C(=O)NCCO)cc3c21 [Example 5, 1-((S)-2-Aminopropyl)-1H-furo[2,3-g]indazole-7-carboxylic acid (2-hydroxyethyl)-amide fumarate] | – | 55 nM | 94% | 3.5 nM |
| C[C@H](N)Cn1ncc2ccc3oc(C(=O)NCCc4cnc[nH]4)cc3c21.O=C(O)/C=C/C(=O)O [Example 6, 1-((S)-2-Aminopropyl)-1H-furo[2,3-g]indazole-7-carboxylic acid [2-(3H-imidazol-4-yl)-ethyl]-amide fumarate] | 201 to 203 °C | 57 nM | 95% | 0.66 nM |
| C[C@H](N)Cn1ncc2ccc3oc(C(=O)NCCN4CCOCC4)cc3c21 [Example 7, 1-((S)-2-Aminopropyl)-1H-furo[2,3-g]indazole-7-carboxylic acid (2-morpholin-4-yl-ethyl)-amide] | – | 109 nM | 89% | 1.3 nM |
| COCCNC(=O)c1cc2c(ccc3cnn(C[C@H](C)N)c32)o1 [Example 8, 1-((S)-2-Aminopropyl)-1H-furo[2,3-g]indazole-7-carboxylic acid (2-methoxyethyl)-amide] | – | 54 nM | 94% | 2.3 nM |
| CC(O)CNC(=O)c1cc2c(ccc3cnn(C[C@H](C)N)c32)o1 (stereo partly drawn) [Example 9, 1-((S)-2-Aminopropyl)-1H-furo[2,3-g]indazole-7-carboxylic acid (2-hydroxypropyl)-amide] | – | 27 nM | 98% | 1.5 nM |
| C[C@H](N)Cn1ncc2ccc3oc(C(=O)NCC4(O)CC4)cc3c21 [Example 10, 1-((S)-2-Aminopropyl)-1H-furo[2,3-g]indazole-7-carboxylic acid (1-hydroxy-cyclopropylmethyl)-amide] | – | 15 nM | 94% | 1.1 nM |
| CC(=O)NCCCNC(=O)c1cc2c(ccc3cnn(C[C@H](C)N)c32)o1 [Example 12, 1-((S)-2-Amino-propyl)-1H-furo[2,3-g]indazole-7-carboxylic acid (3-acetylaminopropyl)-amide] | – | 37 nM | 95% | 1.4 nM |
| C[C@H](N)Cn1ncc2ccc3oc(C(=O)NCCCN4CCCC4=O)cc3c21 [Example 13, 1-((S)-2-Aminopropyl)-1H-furo[2,3-g]indazole-7-carboxylic acid [3-(2-oxo-pyrrolidin-1-yl)-propyl]-amide] | – | 72 nM | 87% | 2 nM |
| Cc1ccc(CNC(=O)c2cc3c(ccc4cnn(C[C@H](C)N)c43)o2)o1 [Example 14, 1-((S)-2-Aminopropyl)-1H-furo[2,3-g]indazole-7-carboxylic acid (5-methyl-furan-2-ylmethyl)amide] | – | 181 nM | 94% | 0.3 nM |
| Cc1noc(-c2cc3c(ccc4cnn(C[C@H](C)N)c43)o2)n1 [Example 15, (S)-1-Methyl-2-[7-(3-methyl-1,2,4-oxadiazol-5-yl)-furo[2,3-g]indazol-1-yl]-ethylamine] | – | 283 nM | 101% | 0.9 nM |
| CNC(=O)Cc1cc2c(ccc3cnn(C[C@H](C)N)c32)o1 [Example 16, 2-[1-((S)-2-Amino-propyl)-1H-furo[2,3-g]indazol-7-yl]-N-methyl-acetamide] | – | 28 nM | 97% | 0.7 nM |
| C[C@H](N)Cn1ncc2ccc3oc(CNC(=O)c4cccnc4)cc3c21 [Example 17] | – | 22 nM | 95% | 3 nM |
| CCNC(=O)NCc1cc2c(ccc3cnn(C[C@H](C)N)c32)o1 [Example 18, 1-[1-((S)-2-Aminopropyl)-1H-furo[2,3-g]indazol-7-ylmethyl]-3-ethylurea] | – | 23 nM | 87% | 4.1 nM |
| CC(=O)Nc1ccc(S(=O)(=O)NCc2cc3c(ccc4cnn(C[C@H](C)N)c43)o2)cc1 [Example 19, N-(4-{[1-((S)-2-Aminopropyl)-1H-furo[2,3-g]indazol-7-ylmethyl]-sulfamoyl}-phenyl)-acetamide] | 80 to 85 °C | 131 nM | 82% | 4.1 nM |
| C[C@H](N)Cn1ncc2ccc3oc(CN4CCN(c5ccccn5)CC4)cc3c21 [Example 20, (S)-1-Methyl-2-[7-(4-pyridin-2-yl-piperazin-1-ylmethyl)-furo[2,3-g]indazol-1-yl]-ethylamine] | – | 141 nM | 81% | – |

Reference: patent US7476687B2, “Substituted furo[2,3-g]indazoles for the treatment of glaucoma” (Alcon, Inc., priority 2003, dated 2009)
